This experiment relates to human ovarian cancer cells (CRL157). The experiment in a line: Cytotoxicity to human ovarian cancer cells (CRL157), Example 3. It counts as cell-based. The procedure:
B. Human ovarian carcinoma cells (CRL157) are precultured in 1% solution of the same block copolymer but without daunorubicin in RPMI 1640 medium supplemented with 10% calf fetal serum. The preparation of part A is added and the mixture is incubated for 60 minutes at 37° C. and the cells then washed three times with RPMI 1640 and cultured in RPMI 1640 supplemented with 10% calf fetal serum for 3 days {Prep. A}. Cytotoxicity is measured, both for this preparation and a parallel preparation of free daunorubicin {Prep. B}, using the method of Alley et al., Cancer Res., 48, 589-601 (1988). The results are as follows:
A. A 1:1.5 mixture of block copolymers of poly(oxyethylene)-poly(oxypropylene) (pluronics P-85 and L-64) having individual ratios (n) of (oxypropylene) to (oxyethylene) blocks of 1.00 and 1.50, respectively, and a combined value (N) of 1.30, is diluted with RPMI 1640 medium to a final concentration of 2.0% at 4° C. The mixture is incubated for 30 minutes at 37° C. and then sterilely filtered through a 0.22 μm filter. An equal volume of a solution of 200 μg daunorubicin in RPMI 1640 medium is added and this mixture is incubated for 30 minutes at 37° C.
B. Cytotoxicity to human ovarian cancer cells (CRL157) is measured, both for this preparation {Prep. A} and a parallel preparation of free daunorubicin {Prep. B} as described in Example 1B.

Usually inhibition stands for how much of the control response was suppressed. In turn, `COc1cccc2c1C(=O)c1c(O)c3c(c(O)c1C2=O)C[C@@](O)(C(C)=O)C[C@@H]3O[C@H]1C[C@H](N)[C@H](O)[C@H](C)O1` [Prep. B, daunorubicin] registered an inhibition at 0.0032 µg/mL of 2%, an inhibition at 0.016 µg/mL of 10%, an inhibition at 0.08 µg/mL of 29% and an inhibition at 0.4 µg/mL of 50%. 2 µg/mL produced 81% inhibition, testing at 10 µg/mL gave an inhibition of 100% and at 50 µg/mL the inhibition was 100%.

The record behind these values is patent US5698529A, “Chemotherapeutic compositions” (Supratek Pharma, Inc., priority 1996, dated 1997).
